From PubChem BioAssay (NCI) come the findings set out here.

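Interpolation was linear, between the two tested concentrations surrounding the appropriate level; five concentrations were tested over 48 hours in 96-well plates. GI50 is the concentration that inhibits growth by half. TGI denotes the concentration required for complete inhibition of growth.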 A value given as a limit tells only on which side of the number the result lay.

Holding throughout (experiment): NCI tumour cell line growth inhibition, 48 h
Assay [1] relates to IGROV1 ovarian.
Assay [2] deals with SNB-19 CNS.
In assay [3] the test system is M14 melanoma.
Assay [4] has as its system SF-539 CNS.
Assay [5] deals with OVCAR-5 ovarian.
Assay [6] deals with SK-MEL-2 melanoma.
Assay [7] deals with HS 578T breast.
The test system of assay [8] is MALME-3M melanoma.
Assay [9] concerns DU-145 prostate.
For assay [10], the system named is OVCAR-8 ovarian.

On to `Cc1occc1C(=S)Nc1ccc(Cl)c(COC(C)(C)C)c1`, for which the TGI was determined as 31 µM in [1]; 48.2 µM in assay [2]; 43.5 µM in [3]; 31.1 µM in assay [4]; 50.6 µM in [5]; 33.1 µM in [6]. Also, the TGI in assay [7] is 49.6 µM; in [8], 31.1 µM; in assay [9], 46.9 µM; in assay [10], 31.5 µM.
Consider `C=C1C(=O)O[C@H]2[C@H]1CC/C(COC(=O)NCc1ccccc1OC)=C\CC[C@@]1(C)O[C@@H]21`, for which the GI50 is 1.57 µM in assay [1]; 1.57 µM in [2]; 1.1 µM in assay [3]; 1.53 µM in [4]; 2.29 µM in assay [5]; 1.71 µM in [6]. Also, the GI50 in assay [7] is 3.4 µM; in assay [8], 1.89 µM; in assay [9], 0.698 µM; in [10], 2.45 µM. Further, the TGI in assay [1] is 4.36 µM; in assay [2], 3.47 µM; in assay [3] it was 2.56 µM; in assay [4] it was 3.04 µM; in [5], 5.44 µM; in [6], 3.89 µM. Besides, the TGI in assay [7] was 19 µM; in [8], 3.98 µM; in [9], 1.98 µM; in assay [10], 8.38 µM.
In the case of `COC1(C(=O)N[C@@H](C)c2ccc(-n3cc(F)cn3)nc2)CCC(c2nc(C)cc(Nc3cc(C)[nH]n3)n2)CC1` (some centres not stated), the GI50 in [2] is 2.29 µM; in assay [3], 3.03 µM; in assay [4], 0.314 µM; in assay [5], 1.4 µM; in assay [6], 6.82 µM; in [7], 0.248 µM. Also, the GI50 is 5.87 µM in assay [8], 1.8 µM in assay [9] and 3.74 µM in [10]. The TGI was 51.4 µM in [2]; 17.7 µM in [3]; 1.56 µM in [4]; 12.5 µM in assay [5]; 23.2 µM in assay [6]; 1.31 µM in assay [7]. Besides, the TGI in [8] turned out to be 21.7 µM; in assay [9] it was 4.63 µM; in assay [10], 25.5 µM.
With `CC(C)(C)C[C@H]1NC(C(=O)NCC[C@H](O)CO)[C@H](c2cccc(Cl)c2)[C@@]12C(=O)Nc1cc(Cl)c(F)cc12` (some centres not stated), the GI50 in assay [1] was 4.08 µM; in assay [2], 21.1 µM; in [3], 16.6 µM; in assay [4] it was 15.5 µM; in assay [5], 15.5 µM; in assay [6] it was 14.4 µM. Also, the GI50 in [7] was 16 µM; in [8] it was 0.866 µM; in assay [9] it was 16.1 µM; in assay [10], 18.6 µM. The TGI was found to be 21.1 µM in [1]; 59.8 µM in assay [2]; 33.7 µM in assay [3]; 31.8 µM in [4]; 31.8 µM in [5]; 28.6 µM in [6]. Besides, the TGI in [7] is 60.4 µM; in assay [8], 11.8 µM; in assay [9], 30.6 µM; in assay [10], 39.1 µM.
Regarding `Nc1ccn(Cc2ccc(C34CC5CC(CC(C5)C3)C4)c(O)c2)c(=O)n1`, the GI50 in assay [2] is 89.1 µM; in assay [3] it was > 100 µM; in [4] it was 42 µM; in [5], > 100 µM; in [6] it was 76.1 µM; in assay [7], 14.4 µM. For the same compound, the GI50 in assay [8] and in assay [9] was > 100 µM in each case. Further, the TGI in assay [2], in assay [3], in assay [4], in assay [5], in assay [6] and in [7] was > 100 µM in each case. The TGI in assay [8] and in assay [9] was > 100 µM throughout.
As for `Cc1[c-]onc1C.Cc1[c-]onc1C.[Ag].[Ag].[NH-]S(=O)(=O)c1ccc(N=Nc2cc(N=Nc3ccc(S([NH-])(=O)=O)cc3)c3c(NC(=O)C(Cl)Cl)cccc3c2OC(=O)C(Cl)Cl)cc1`, the GI50 in [1] is 6.53 µM; in assay [2], 7.38 µM; in assay [3] it was 8.18 µM; in [4], 14.2 µM; in [5], 9.92 µM; in assay [6], 6.89 µM. The GI50 in assay [7] is 5.81 µM; in [8], 9.07 µM; in assay [9] it was 7.38 µM; in assay [10], 10.1 µM. Besides, the TGI in assay [1] is 26.4 µM; in assay [2], 16.9 µM; in assay [3], 18.4 µM; in assay [4], > 50 µM; in [5], 19 µM; in assay [6] it was 15.9 µM. Further, the TGI in assay [7] was > 50 µM; in assay [8] it was 21.2 µM; in assay [9], 14.8 µM; in assay [10] it was 36.4 µM.
As for `Nc1c(C(=O)Nc2cccc([N+](=O)[O-])c2)sc2nc3c(cc12)C(O)CCC3` (configuration not stated), the GI50 in assay [1] is 26 µM; in assay [2] it was 18.7 µM; in assay [3], 3.39 µM; in assay [4] it was 5.06 µM; in [5], > 100 µM; in assay [6] it was 5.4 µM. The GI50 in assay [7] is 11 µM; in [8], 26.9 µM; in assay [9], 20.5 µM; in assay [10], 10.8 µM. For the same compound, the TGI is > 100 µM in assay [1]; > 100 µM in assay [2]; > 100 µM in assay [3]; > 93.7 µM in [4]; > 100 µM in [5]; > 92.2 µM in assay [6]. Moreover, the TGI in [7], in [8], in assay [9] and in assay [10] was > 100 µM in each case.
Take `Cc1sc(C(=O)Nc2cc(C(=O)NCCCN(C)C)n(C)c2)cc1NC(=O)CCCN1C(=O)c2cccc3cccc(c23)C1=O`: the GI50 in [1], in [2], in assay [3], in assay [4], in assay [5] and in assay [6] was > 100 µM each time. For the same compound, the GI50 was > 100 µM in assay [7], 26 µM in [8] and > 100 µM in [9]. The TGI in [1], in assay [2], in assay [3], in assay [4], in assay [5] and in assay [6] was > 100 µM throughout. For the same compound, the TGI in [7], in assay [8] and in assay [9] was > 100 µM throughout.
